The source of these data is PMC4767442 (Oncotarget, 2015).

Details of data set [1]: method as in PMID 12203104. Conditions: humans, single i.v. bolus; cited from earlier work.
Data set [2] is described as follows: Pharmacokinetics and metabolism of Bp4eT in rats (literature). The format is in vivo.
The conditions of data set [3]: cited from earlier work.
In data set [4] the test system is MCF-7 cells. Nature of the data set: Inhibition of internalized 59Fe uptake from 59Fe-transferrin. Conditions: MCF-7, compounds 25 μmol·L^−1, 3 h/37°C. Type of data set: cell-based, human. The method, then: (§1) Iron chelation efficiency of the compounds at a concentration of 10 μmol·L^−1 was determined via 3 methods: (1) the calcein assay; (2) the ability of the ligands to induce ^59Fe mobilization from cells prelabeled with ^59Fe-transferrin; and (3) the efficacy of these agents to inhibit the uptake of ^59Fe from ^59Fe-transferrin [22, 38–40].
(§2) The fluorimetric calcein-AM assay was performed by established methods, as described previously. The Fe chelation efficiency of the metabolites in cells was expressed as a percentage of that of the parent chelator, Dp44mT or DpC (100%). For studies assessing the ability of these agents to induce ^59Fe mobilization and inhibit ^59Fe uptake from ^59Fe-transferrin by cells, human transferrin (Sigma-Aldrich, Germany) was labeled with ^59Fe (PerkinElmer, MA, USA) to generate ^59Fe-transferrin at a final specific activity of 500 pCi/pmol Fe, as previously described. The unbound ^59Fe was removed by exhaustive vacuum dialysis against a large excess of 0.15 M NaCl buffered to pH 7.4 with 1.4% NaHCO3 by standard methods.
(§3) To examine the ability of the studied substances to mobilize ^59Fe from MCF-7 cells or inhibit ^59Fe uptake from ^59Fe-transferrin, established techniques were utilized. For ^59Fe mobilization studies, cells were preincubated with ^59Fe-transferrin (0.75 μmol·L^−1) for 3 h/37°C, washed 4 times at 4°C on ice, and then reincubated with control medium or control medium containing the compounds (25 μmol·L^−1) for 3 h/37°C. The release of ^59Fe from the cells into the overlying medium was then examined by collecting both the cells and overlying medium and assessing ^59Fe levels using a γ-counter. For studies examining the ability of the agents to inhibit ^59Fe uptake from ^59Fe-transferrin, cells were incubated for 3 h/37°C with ^59Fe-transferrin (0.75 μmol·L^−1) in the presence or absence of the agents (25 μmol·L^−1), and then washed 4 times at 4°C on ice. The internalization of ^59Fe by cells was then assessed by incubation for 30 min/4°C with the general protease, Pronase (1 mg/mL), utilizing standard techniques. The amount of internalized ^59Fe in the presence of the agents was expressed as a percentage of ^59Fe internalized by control cells incubated in the presence of control media alone.

For data set [5], the system named is MCF-7 human breast adenocarcinoma cell line. Nature of the data set: MTT proliferation/viability assay, MCF-7. The format is cell-based. Conditions: MCF7, 72 h/37°C, mean ± S.D. As to the method:
(§4) The MCF-7 human breast adenocarcinoma cell line was purchased from the European Collection of Cell Cultures (U.K.). The HL-60 human promyelocytic leukemia cell line, HCT116 human colorectal carcinoma cell line, H9c2 rat heart-derived myoblast cell line and 3T3 mouse embryo fibroblast line, were obtained from the American Type Culture Collection (VA, U.S.A.). Cells were cultured in Dulbecco's modified Eagle's medium (DMEM, Lonza, Switzerland) with or without (for MCF-7 cells only) phenol red, supplemented with 10% heat-inactivated fetal bovine serum (FBS; Lonza, Switzerland), 1% penicillin/streptomycin solution (Lonza, Switzerland) and 10 mM HEPES buffer (pH 7.0-7.6; Sigma-Aldrich, Germany). The HL-60 cell line was maintained in RPMI medium (Sigma-Aldrich, Germany) supplemented with 10% heat-inactivated FBS and 1% penicillin/streptomycin solution. All cell lines were cultured in 75 cm^2 tissue culture flasks (Switzerland) at 37°C in a humidified atmosphere of 5% CO2. Sub-confluent cells or, in the case of HL-60 cells, a cell suspension, were sub-cultured every 3-4 days.
(§5) Cells were seeded in 96-well plates for 24 h/37°C at a density of 5,000 (MCF-7), 10,000 (HL-60), 2,000 (HCT116) and 10,000 (3T3 and H9c2) cells/well. For 3T3 and H9c2 cells, the medium was changed to serum- and pyruvate-free DMEM 24 h prior to the experiments. Anti-proliferative and cytotoxicity effects of the compounds were studied at different concentrations after incubations for 72 h/37°C. Viabilities of cells were determined using MTT assays (Sigma-Aldrich, Germany) according to the manufacturer's instructions on a Tecan Infinite 200M plate reader (Tecan, Austria). The proliferation/viability of treated groups was expressed as a percentage of the untreated controls (100%).

Data set [6] has as its system 3T3 mouse embryo fibroblast line. Nature of the data set: MTT proliferation/viability assay, 3T3. Type of data set: cell-based. Conditions: 72 h/37°C, mean ± S.D., serum- and pyruvate-free DMEM. The method, then:
as §4, §5

Data set [7] concerns cellular labile iron pools. Kind of data set: Fluorimetric calcein-AM assay of intracellular iron chelation. The note with it: 10 μmol·L^−1, parent Dp44mT or DpC. The format is cell-based. The method, then: as §1, §2
Data set [8] concerns cancer cell lines (HL-60, MCF-7 and HCT116). Nature of the data set: MTT assay, cancer cell lines as a group. The format is cell-based. Conditions: Homo sapiens, HL-60, MCF-7, HCT116, 72 h/37°C, read-out: IC50 against all cancer cell lines. As to the method: as §4, §5
The test system of data set [9] is H9c2 rat heart-derived myoblast cell line. Nature of the data set: MTT proliferation/viability assay, H9c2. The format is cell-based. The note with it: 72 h/37°C, mean ± S.D., serum- and pyruvate-free DMEM. As to the method: as §4, §5
The subject of data set [10] is non-cancer cell lines (H9c2 and 3T3). Nature of the data set: MTT assay, non-cancer cell lines as a group. Type of data set: cell-based. Conditions: Rattus norvegicus, 72 h/37°C, read-out: IC50 towards non-cancer cells. The method, then:
as §4, with “All cell lines were cultured in 75 cm^2 tissue culture flasks (Switzerland) at 37°C in a humidified atmosphere of 5% CO2. Sub-confluent cells or, in the case of HL-60 cells, a cell suspension, were sub-cultured every 3-4 days.” left out
Cells were seeded in 96-well plates for 24 h/37°C at a density of 5,000 (MCF-7), 10,000 (HL-60), 2,000 (HCT116) and 10,000 (3T3 and H9c2) cells/well. […] Viabilities of cells were determined using MTT assays (Sigma-Aldrich, Germany) according to the manufacturer's instructions on a Tecan Infinite 200M plate reader (Tecan, Austria). The proliferation/viability of treated groups was expressed as a percentage of the untreated controls (100%).
In general terms: Formazan colour is commonly taken as a measure of viable cells.

Data set [11] concerns HL-60 human promyelocytic leukemia cell line. Kind of data set: MTT proliferation/viability assay, HL-60. The format is cell-based. Conditions: 72 h/37°C, mean ± S.D. As to the method:
as §4, §5

For data set [12], the system named is HCT116 human colorectal carcinoma cell line. Kind of data set: MTT proliferation/viability assay, HCT116. The format is cell-based. The note with it: HCT-116, 72 h/37°C, mean ± S.D. The method, then: as §4, §5
Data set [13] can be described thus: Post-preparative stability in the autosampler at 10°C. The format is physicochemical. The note with it: for Post-preparative stability: autosampler 10°C, 24 h. The method, then: (§6) The UHPLC-MS/MS methods for quantitative assays were validated with respect to selectivity, linearity, precision, accuracy, stability, recovery, matrix effects and dilution integrity (see […]
Supplementary Table 1-3). […]
(§7) Stability was assessed at low, medium and high concentration levels. Long -term stability was assessed for plasma samples at -80°C over a period of 7 days (three aliquots per level; Supplementary Table 3). […]

The subject of data set [14] is MCF-7 cells. Nature of the data set: 59Fe mobilization from cells prelabeled with 59Fe-transferrin. Type of data set: cell-based, human. The note with it: MCF-7 prelabeled with 59Fe-transferrin, compounds 25 μmol·L^−1, 3 h/37°C. As to the method: as §1, §2, §3
Data set [15] can be described thus: Long-term stability in plasma samples at -80°C. The format is in vitro ADME, rat. Conditions: for Long-term stability: plasma, -80°C, 7 days. As to the method:
as §6
Linearity was examined over the concentration ranges described in Supplementary Table 1 using a weighted (1/x 2) linear regression in GraphPad Prism 6 (v. 6.04, GraphPad Software […]
as §7

[16] abbreviates: high concentration level (2.105-3.115 µmol·L-1).
[17] abbreviates: low concentration level (0.035-0.156 µmol·L-1).
[18] abbreviates: medium concentration level (0.702-1.558 µmol·L-1).

For `NC(=S)NN=Cc1ncccc1N` [Triapine®, 3-aminopyridine-2-carboxaldehyde thiosemicarbazone], the half-life of elimination entry in data set [1] was “approximately 1 h”.
Turning to `CCNC(=S)NN=C(c1ccccc1)c1ccccn1` [Bp4eT, 2-benzoylpyridine 4-ethyl-3-thiosemicarbazone], the “dose-corrected Cmax, fold higher than Dp44mT and DpC of the present study” value in data set [2] is about 2 fold. The “AUC of the amidrazone metabolite relative to the parent drug” value in [3] (rat, in vivo) is recorded as “≈ 20%”. The elimination half-life in data set [3] (rats) was 1.4 h.
Take `CN(C=NN=C(c1ccccn1)c1ccccn1)C1CCCCC1` [DpC-A, N-cyclohexyl-N′-(di(pyridin-2-yl)methylene)-N-methylformohydrazonamide]: the “inhibition of 59Fe uptake from 59Fe-transferrin (in words)” value in the data set with MCF-7 cells [4] is “loss of Fe chelation efficacy”. For the same compound, the IC50 is 19.5 ± 6.27 µM in data set [5]; 640 ± 65.9 µM in data set [6]; at least 19 µM in data set [8]; 257 ± 73.6 µM in data set [9]; at least 257 µM in data set [10]; 32.3 ± 3.85 µM in data set [11]. Also, the IC50 in data set [12] came to 34.1 ± 6.35 µM. Further, in [7], the “intracellular Fe chelation efficacy relative to parent chelator (100%)” value was 2.5%. Besides, the “decomposition on storage (in words)” value in [13] (24 h storage in the autosampler at 10°C) and in data set [15] (up to 7 days stored at −80°C) was “No significant decomposition” each time. Besides, the values for the Post-preparative stability in data set [13] (setting [16]), in data set [13] (setting [17]) and in [13] (setting [18]) were 99.55%, 101.11% and 93.89%, respectively. The “59Fe mobilization (in words)” value in the data set with MCF-7 cells [14] was “comparable (p > 0.05) to the control medium”. Besides, the Long-term stability in data set [15] (setting [16]) is recorded as 104.23%; in [15] (setting [17]) it was 87.83%; in data set [15] (setting [18]), 105.54%.

Usually IC50 stands for the concentration at which inhibition is half-maximal.
